Source: patent publication US8969583B2, “3-phenyl-5-ureidoisothiazole-4-carboximide and 3-amino-5-phenylisothiazole derivatives as kinase inhibitors” (Allergan, Inc., priority 2011, dated 2015)

Tests used:
[1] = target: PDGFRβ (purified cytoplasmic domain PDGFR-b protein) (Homo sapiens (Human), UniProt P09619); experiment: PDGFRβ Kinase Assay (biochemical, ELISA); conditions: 36 μM ATP, 60 minute incubation at 30° C.; read-out: PDGFRβ Enzyme Assay (IC50 nM)
Protocol: (§1) Biochemical PDGFRβ kinase assays were performed in 96 well microtiter plates that were coated overnight with 75 μg of poly-Glu-Tyr (4:1) in 10 mM Phosphate Buffered Saline (PBS), pH 7.4. The coated plates were washed with 2 mls per well PBS+0.05% Tween-20 (PBS-T), blocked by incubation with PBS containing 1% BSA, then washed with 2 mls per well PBS-T prior to starting the reaction. Reactions were carried out in 100 μL reaction volumes containing 36 μM ATP in kinase buffer (50 mM Hepes buffer pH 7.4, 20 mM MgCl2, 0.1 mM MnCl2 and 0.2 mM Na3VO4). Test compounds were reconstituted in 100% DMSO and added to the reaction to give a final DMSO concentration of 5%. Reactions were initiated by the addition 20 ul per well of kinase buffer containing 200-300 ng purified cytoplasmic domain PDGFR-b protein (Millipore). Following a 60 minute incubation at 30° C., the reactions were washed 2 mls per well PBS-T. 100 μl of a monoclonal anti-phosphotyrosine antibody-peroxidase conjugate diluted 1:10,000 in PBS-T was added to the wells for 30 minutes. Following a 2 mls per well wash with PBS-Tween-20, 100 μl of O-Phenylenediamine Dihydrochloride in phosphate-citrate buffer, containing urea hydrogen peroxide, was added to the wells for 7-10 minutes as a colorimetric substrate for the peroxidase. The reaction was terminated by the addition of 100 μl of 2.5NH2SO4 to each well and read using a microplate ELISA reader set at 492 nm. IC50 values for compound inhibition were calculated directly from graphs of optical density (arbitrary units) versus compound concentration following subtraction of blank values.

[2] = target: VEGFR2 (purified cytoplasmic domain KDR protein) (Homo sapiens (Human), UniProt P35968); experiment: VEGFR2 Kinase Assay (biochemical KDR kinase assay, ELISA); conditions: 2.7 μM ATP, 15 minute incubation at 30° C.; read-out: VEGFR2 Enzyme Assay (IC50 nM)
Sequence of VEGFR2 (purified cytoplasmic domain KDR protein) (P35968 786-1356): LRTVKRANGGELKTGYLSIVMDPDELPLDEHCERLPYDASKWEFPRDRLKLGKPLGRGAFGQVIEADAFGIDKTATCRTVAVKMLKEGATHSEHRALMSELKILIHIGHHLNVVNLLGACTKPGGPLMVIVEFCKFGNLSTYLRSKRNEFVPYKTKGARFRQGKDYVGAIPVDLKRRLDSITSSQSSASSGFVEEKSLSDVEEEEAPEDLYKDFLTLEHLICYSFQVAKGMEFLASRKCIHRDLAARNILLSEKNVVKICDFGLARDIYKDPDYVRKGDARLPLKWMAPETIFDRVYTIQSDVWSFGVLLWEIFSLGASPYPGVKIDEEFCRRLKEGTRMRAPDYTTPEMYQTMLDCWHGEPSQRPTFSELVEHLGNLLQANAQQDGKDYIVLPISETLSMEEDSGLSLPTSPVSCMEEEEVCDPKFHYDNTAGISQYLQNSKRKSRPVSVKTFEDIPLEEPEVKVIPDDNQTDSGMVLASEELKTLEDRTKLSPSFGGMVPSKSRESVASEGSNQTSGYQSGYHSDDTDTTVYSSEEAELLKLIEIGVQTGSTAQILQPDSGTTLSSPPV
Protocol: as §1, with “KDR” for “PDGFRβ”, “μg/well” for “μg”, “Reactions were carried out in 100 μL reaction volumes containing 36 μM ATP in kinase buffer (50 mM Hepes buffer pH 7.4, 20 mM MgCl2, 0.1 mM MnCl2 and 0.2 mM Na3VO4). Test compounds were reconstituted in 100% DMSO and added to the reaction to give a final DMSO concentration of 5%.” left out, “KDR” for “PDGFR-b”, “(BPS Bioscience, San Diego, Calif.).” for “(Millipore).”, “15” for “60”

VEGFR1 = VEGFR1 (Homo sapiens (Human), UniProt P17948); experiment: VEGFR1 Enzyme Assay; assay type: biochemical
Sequence of VEGFR1 (P17948 27-1338, species assumed): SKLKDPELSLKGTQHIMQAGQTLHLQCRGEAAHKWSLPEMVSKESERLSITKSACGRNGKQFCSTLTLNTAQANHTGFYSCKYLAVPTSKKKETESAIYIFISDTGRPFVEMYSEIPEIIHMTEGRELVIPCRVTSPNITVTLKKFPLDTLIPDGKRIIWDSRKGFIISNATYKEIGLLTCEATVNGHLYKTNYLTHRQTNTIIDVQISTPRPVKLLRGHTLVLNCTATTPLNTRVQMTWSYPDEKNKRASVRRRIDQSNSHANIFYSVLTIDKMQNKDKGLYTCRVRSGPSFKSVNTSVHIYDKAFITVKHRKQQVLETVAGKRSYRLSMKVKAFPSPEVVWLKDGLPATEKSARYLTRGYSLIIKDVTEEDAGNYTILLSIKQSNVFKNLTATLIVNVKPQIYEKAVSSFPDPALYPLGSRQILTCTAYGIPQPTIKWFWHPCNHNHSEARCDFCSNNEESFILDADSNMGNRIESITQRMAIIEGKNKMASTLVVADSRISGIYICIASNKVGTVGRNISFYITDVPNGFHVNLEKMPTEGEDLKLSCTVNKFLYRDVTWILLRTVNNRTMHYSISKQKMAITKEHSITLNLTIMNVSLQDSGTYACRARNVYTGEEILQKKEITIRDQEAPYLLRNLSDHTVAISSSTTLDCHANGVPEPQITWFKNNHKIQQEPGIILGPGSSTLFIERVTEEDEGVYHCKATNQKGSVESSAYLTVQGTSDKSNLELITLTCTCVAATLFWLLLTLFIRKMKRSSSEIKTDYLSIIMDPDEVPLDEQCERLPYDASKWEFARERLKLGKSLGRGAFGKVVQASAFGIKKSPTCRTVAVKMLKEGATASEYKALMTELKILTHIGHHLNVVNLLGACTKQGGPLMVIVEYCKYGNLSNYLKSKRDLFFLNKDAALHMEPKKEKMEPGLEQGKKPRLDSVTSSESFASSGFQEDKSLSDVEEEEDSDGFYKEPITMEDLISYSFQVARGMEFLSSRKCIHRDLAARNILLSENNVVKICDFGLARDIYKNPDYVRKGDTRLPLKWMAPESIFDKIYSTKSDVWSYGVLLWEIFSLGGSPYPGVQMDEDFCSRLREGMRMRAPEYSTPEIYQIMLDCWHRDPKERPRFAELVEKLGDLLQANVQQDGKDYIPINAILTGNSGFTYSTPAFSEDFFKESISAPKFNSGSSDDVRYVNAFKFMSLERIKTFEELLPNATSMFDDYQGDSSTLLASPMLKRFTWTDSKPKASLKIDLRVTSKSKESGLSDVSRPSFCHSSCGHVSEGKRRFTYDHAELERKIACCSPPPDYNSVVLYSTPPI

Sequence of PDGFRβ (purified cytoplasmic domain PDGFR-b protein) (P09619 554-1106): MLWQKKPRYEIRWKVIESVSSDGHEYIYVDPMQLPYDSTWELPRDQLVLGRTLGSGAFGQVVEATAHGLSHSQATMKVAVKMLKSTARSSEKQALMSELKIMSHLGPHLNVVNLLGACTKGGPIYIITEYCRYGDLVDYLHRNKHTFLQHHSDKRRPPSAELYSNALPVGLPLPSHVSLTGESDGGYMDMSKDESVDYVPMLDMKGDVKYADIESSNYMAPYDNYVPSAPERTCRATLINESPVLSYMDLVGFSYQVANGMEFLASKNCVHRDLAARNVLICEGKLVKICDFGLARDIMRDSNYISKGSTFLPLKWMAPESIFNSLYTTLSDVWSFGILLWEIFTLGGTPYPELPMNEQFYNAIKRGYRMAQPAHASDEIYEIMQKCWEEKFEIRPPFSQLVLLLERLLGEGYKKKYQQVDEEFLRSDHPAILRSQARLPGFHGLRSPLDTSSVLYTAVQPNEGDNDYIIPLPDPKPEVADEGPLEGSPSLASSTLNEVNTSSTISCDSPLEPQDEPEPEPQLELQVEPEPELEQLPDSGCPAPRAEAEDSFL

Row | Compound | IC50 [1] | IC50 [2] | IC50 (VEGFR1)
1 | NC(=O)c1c(-c2ccc([N+](=O)[O-])cc2)nsc1NC(=O)NCCCN1CCOCC1 [Example 1, 5-({[(3-morpholin-4-ylpropyl)amino]carbonyl}amino)-3-(4-nitrophenyl)isothiazole-4-carboxamide] | > 10000 nM | > 10000 nM | > 10000 nM
2 | NC(=O)c1c(-c2ccc(NC(=O)Nc3ccccc3)cc2)nsc1NC(=O)NCCCN1CCOCC1 [Example 3, 3-{4-[(anilinocarbonyl)amino]phenyl}-5-({[(3-morpholin-4-ylpropyl)amino]carbonyl}amino)isothiazole-4-carboxamide] | 21 nM |  | 
3 | NC(=O)c1c(-c2ccc(NC(=O)c3cccc(C(F)(F)F)c3)cc2)nsc1NC(=O)NCCCN1CCOCC1 [Example 11, 5-({[(3-morpholin-4-ylpropyl)amino]carbonyl}amino)-3-(4-{[3-(trifluoromethyl)benzoyl]amino}phenyl)isothiazole-4-carboxamide] | > 1000 nM |  | > 1000 nM
4 | NC(=O)c1c(-c2ccc([N+](=O)[O-])cc2)nsc1NC(=O)N1CCCC1=O [Example 45, 3-(4-Nitro-phenyl)-5-[(2-oxo-pyrrolidine-1-carbonyl)-amino]-isothiazole-4-carboxylic acid amide] |  | > 10000 nM | 
5 | Cc1ccc(NC(=O)Nc2ccc(-c3nsc(N)c3C(N)=O)cc2)cc1 [Example 59, 5-Amino-3-[4-({[(4-methylphenyl)amino]carbonyl}amino)phenyl]isothiazole-4-carboxamide] | 60 nM |  | 
6 | NC(=O)c1c(-c2cccc([N+](=O)[O-])c2)nsc1N [Example 61, 5-Amino-3-(3-nitrophenyl)isothiazole-4-carboxamide] |  | > 10000 nM | 
7 | NC(=O)c1c(-c2cccc(N)c2)nsc1N [Example 62, 5-Amino-3-(3-aminophenyl)isothiazole-4-carboxamide] |  | > 10000 nM | 
8 | NC(=O)c1c(-c2cccc(NC(=O)c3cccc(C(F)(F)F)c3)c2)nsc1N [Example 64, 5-Amino-3-(3-{[3-(trifluoromethyl)benzoyl]amino}phenyl)isothiazole-4-carboxamide] | 844 nM |  | 
9 | Cc1ccc(F)c(NC(=O)Nc2ccc(-c3snc(N)c3C(N)=O)cc2)c1 [Example 69, 3-Amino-5-[4-({[(2-fluoro-5-methylphenyl)amino]carbonyl}amino)phenyl]isothiazole-4-carboxamide] | 48 nM |  | 
10 | Cc1ccc(F)c(NC(=O)Nc2ccc(-c3snc(NCCCN4CCOCC4)c3C(N)=O)cc2)c1 [Example 70, 5-[4-({[(2-Fluoro-5-methylphenyl)amino]carbonyl}amino)phenyl]-3-[(3-morpholin-4-ylpropyl)amino]isothiazole-4-carboxamide] | 70 nM |  | 

Results, then the molecule that gave them:

Row | IC50 [1] | IC50 [2] | IC50 (VEGFR1) | Compound
11 | > 10000 nM |  |  | NC(=O)c1c(-c2ccc(N)cc2)nsc1NC(=O)NCCCN1CCOCC1 [Example 2, 3-(4-aminophenyl)-5-({[(3-morpholin-4-ylpropyl)amino]carbonyl}amino)isothiazole-4-carboxamide]
12 | 47 nM |  |  | Cc1ccc(F)c(NC(=O)Nc2ccc(-c3nsc(NC(=O)NCCCN4CCOCC4)c3C(N)=O)cc2)c1 [Example 4, 3-[4-({[(2-fluoro-5-methylphenyl)amino]carbonyl}amino)phenyl]-5-({[(3-morpholin-4-ylpropyl)amino]carbonyl}amino)isothiazole-4-carboxamide]
13 | 10 nM |  |  | Cc1cccc(NC(=O)Nc2ccc(-c3nsc(NC(=O)NCCCN4CCOCC4)c3C(N)=O)cc2)c1 [Example 5, 3-[4-({[(3-methylphenyl)amino]carbonyl}amino)phenyl]-5-({[(3-morpholin-4-ylpropyl)amino]carbonyl}amino)isothiazole-4-carboxamide]
14 | 24 nM |  |  | NC(=O)c1c(-c2ccc(NC(=O)Nc3cc(C(F)(F)F)ccc3F)cc2)nsc1NC(=O)NCCCN1CCOCC1 [Example 6, 3-{4-[({[2-fluoro-5-(trifluoromethyl)phenyl]amino}carbonyl)amino]phenyl}-5-({[(3-morpholin-4-ylpropyl)amino]carbonyl}amino)isothiazole-4-carboxamide]
15 | 12 nM |  |  | Cc1ccc(NC(=O)Nc2ccc(-c3nsc(NC(=O)NCCCN4CCOCC4)c3C(N)=O)cc2)cc1 [Example 7, 3-[4-({[(4-methylphenyl)amino]carbonyl}amino)phenyl]-5-({[(3-morpholin-4-ylpropyl)amino]carbonyl}amino)isothiazole-4-carboxamide]
16 | > 10000 nM |  | > 1000 nM | COCCCNC(=O)Nc1snc(-c2ccc(N)cc2)c1C(N)=O [Example 9, 3-(4-aminophenyl)-5-({[(3-methoxypropyl)amino]carbonyl}amino)isothiazole-4-carboxamide]
17 | 10 nM |  |  | Cc1ccc(NC(=O)Nc2ccc(-c3nsc(NC(=O)NCCCC(=O)O)c3C(N)=O)cc2)cc1 [Example 48, 4-{[({4-(Aminocarbonyl)-3-[4-({[(4-methylphenyl)amino]carbonyl}amino)phenyl]isothiazol-5-yl}amino)carbonyl]amino}butanoic acid]
18 | 13 nM |  |  | Cc1ccc(NC(=O)Nc2ccc(-c3nsc(NC(=O)NCCCO)c3C(N)=O)cc2)cc1 [Example 56, 5-({[(3-Hydroxypropyl)amino]carbonyl}amino)-3-[4-({[(4-methylphenyl)amino]carbonyl}amino)phenyl]isothiazole-4-carboxamide]
19 |  | > 10000 nM |  | NC(=O)c1c(-c2ccc(N)cc2)nsc1N [Example 58, 5-Amino-3-(4-aminophenyl)isothiazole-4-carboxamide]
20 | 70 nM |  |  | Cc1ccc(F)c(NC(=O)Nc2ccc(-c3nsc(N)c3C(N)=O)cc2)c1 [Example 60, 5-Amino-3-[4-({[(2-fluoro-5-methylphenyl)amino]carbonyl}amino)phenyl]isothiazole-4-carboxamide]
21 | > 1000 nM | > 10000 nM |  | NC(=O)c1c(-c2cccc(NC(=O)Nc3ccccc3)c2)nsc1N [Example 65, 5-Amino-3-{3-[(anilinocarbonyl)amino]phenyl}isothiazole-4-carboxamide]
22 |  | > 1000 nM |  | NC(=O)c1c(-c2ccc(N)cc2)nsc1NC(=O)NCCCN1CCCC1 [Example 67, 3-(4-Aminophenyl)-5-({[(3-pyrrolidin-1-ylpropyl)amino]carbonyl}amino)isothiazole-4-carboxamide]
23 | 12 nM |  |  | Cc1ccc(NC(=O)Nc2ccc(-c3nsc(NC(=O)NCCCN4CCCC4)c3C(N)=O)cc2)cc1 [Example 68, 3-[4-({[(4-Methylphenyl)amino]carbonyl}amino)phenyl]-5-({[(3-pyrrolidin-1-ylpropyl)amino]carbonyl}amino)isothiazole-4-carboxamide]
